Measured values published in US20220236187A1, “SYSTEM AND METHOD FOR REAL-TIME MULTICOLOR SHORTWAVE INFRARED FLUORESCENCE IMAGING” (HELMHOLTZ ZENTRUM MÜNCHEN - DEUTSCHES FORSCHUNGSZENTRUM FÜR …, priority 2019, published 2022).
Like-named read-outs stand apart in the source and are kept apart here.

Key:
[1] = value used as reference for relative measurements; cited from earlier work
[2] = value used as reference for relative measurements; cited from earlier work; remark: listed apart in the source
[3] = Brightness comparison in organic solvent in the excitation-multiplexed SWIR imaging configuration; type: physicochemical; settings: 0.25 μM, 785/892/968 nm excitation, 1000 nm LP
Excerpt: While photophysical characterization can be essential for understanding chromophore properties, when moving to an in vivo system, there are many additional parameters that might contribute to a dye's performance, including delivery strategy, interaction with biological tissues, and the excitation and detection parameters of the imaging configuration. To begin to understand the translation to in vivo experiments, an excitation-multiplexed SWIR imaging configuration was used to compare emission of the fluorophores when excited at relevant wavelengths. The imaging set-up includes excitation lasers that correspond to each channel (e.g., i-iv, FIG. 17a) (785, 892, and 968, 1065 nm) with irradiation scaled to the approved values, as outlined by the International Commission on Non-Ionizing Radiation Protection (ICNIRP) guidelines. The guidelines indicate that within the spectral region of interest (˜785 nm-1065 nm) higher photon doses are tolerated as the wavelength is increased. […] The excitation lasers are diffused and delivered uniformly to the biological sample. […]
To compare brightness of the chromenylium dyes in vitro, dyes 5, 6, 9 and 10 were dissolved in organic solvent (DCM) at 0.25 μM, and measured the emission, with 1000 nm longpass (LP) filtering on an InGaAs camera upon sequential excitation with 785, 892, and 968 nm lasers. […]

[4] = Two-color SWIR lymphatic imaging of a narcotized mouse (Example 2, Demonstration III); type: in vivo; settings: injected intradermally into footpads and base of tail; after 30 min, 40 min
Excerpt: The FIGS. 9A, 9B and 9C show merged frames representing the lymphatic system of a narcotized mouse in two-color real-time acquisition. With detector exposure time of 20 ms, a frame rate of 21 fps is achieved with the developed system. […] Then, Julo 7 micelles have been injected intravenously. The lymphatic functional imaging is later enhanced by the assignment of two distinct colors.
Light Source (785 nm laser & 1064 nm laser sequentially triggered, pulse length=21 ms)→Collimator→Mirror→1100 nm Short-pass Filter→Engineered Diffuser→Sample. The arrows represent the light path. Accordingly, the light path has been set up as follows: from Light Source (785 nm laser & 1064 nm laser sequentially triggered, pulse length=21 ms) to Collimator to Mirror to 1100 nm Short-pass Filter to Engineered Diffuser to Sample.
Sample→3xf=500 mm C-Coated lenses→Silver Mirror→1000 nm Long-pass Filter→2xf=200 mm C-coated lenses→InGaAs Detector. The arrows represent the light path. Accordingly, the light path has been set up as follows: from Sample to 3xf=500 mm C-Coated lenses to Silver Mirror to 1000 nm Long-pass Filter to 2xf=200 mm C-coated lenses to InGaAs Detector.
Sample: ICG (aqueous, 13 nmol intradermally [footpads and base of tail]) and Julo7 (micelles, 70 nmol intravenously).

[5] = stated as established property; cited from earlier work
[6] = In vivo brightness comparison of JuloChrom5 (10) and ICG in a single mouse; parameters: species or system mice; settings: compared to the PEG-coated micelles
Excerpt: (§1) FIG. 21: Brightness comparisons in imaging configuration. a-c) Images upon 785 (33 mWcm^−2), 892 (54 mWcm^−2), and 968 (77 mWcm^−2) nm ex. and LP1000 nm detection (variable exposure time (ET) and frame rate) of capillaries containing equal moles of dyes 4-6, 9, 10 (lipid formulations) and benchmark dyes ICG (free) and MeOFlav7 (abbreviated MF7) (lipid formulation) when dissolved in water (a), fetal bovine serum (FBS) (b), or sheep blood (c). […] (e) and after injection of JuloChrom5 (10) (50 nmol) upon 982 nm (104 mWcm^−2) ex. (f). Collect: LP1000 nm, 2.0 ms ET, 150 fps (for 2-channel collection, see SI for images from all channels).
To most closely assess the brightness performance for SWIR imaging, an in vivo comparative experiment between the highest performing chromenylium dye, JuloChrom5 (10) and ICG was designed. To note, while many SWIR imaging agents have been compared to the benchmark dye, ICG, these comparisons are often difficult due to the diverse photophysical and biological properties of different emitters. In this case, the in vivo comparison is complicated by differing biodistribution properties of the two dyes. […] Normalizing each acquisition to the injection start time, the signal over time over the whole mouse (yellow), a section of the vasculature (red), and the liver (black) were quantified. […]

[7] = Excitation-multiplexed SWIR imaging in mice, probe distribution (Example 9); type: in vivo; settings: 80 minutes after i.p. 10 micelles and i.v. 3 micelles and ICG; top view
Excerpt: To perform excitation multiplexing in the SWIR, a custom SWIR imaging configuration with three lasers and an InGaAs detector was built (FIG. 13B). With laser lines at 785 nm, 980 nm, and 1064 nm, tailored excitation could uniquely excite three fluorophores. Emission is detected in a color-blind fashion using identical filters and settings in the SWIR, providing high-resolution images. To enable this process to occur in real-time, we constructed an electronic triggering system which is coupled to both the camera and laser excitation sources. […]
Physiological properties such as heart-rate, respiratory rate, thermoregulation, metabolism, and the function of the central nervous system, are highly impacted by anesthesia. […] Due to frame rates which are faster than macroscopic movements in animals, the heart rate and respiratory rate in awake animals can be quantified. […] The method allows physiology to be monitored with minimal perturbation of the animal's usual environment. […] The real-time collection can be visualized by observing close time-points in which a continuous movement is monitored without visual aberrations (FIG. 16A). In addition to assessing natural physiology, these tools foreshadow more complex experiments in which the location of multiple probes could be monitored over long periods of time, non-invasively and without the need for anesthesia. […]

[8] = Brightness comparison of micelle-formulated dyes and ICG in water, fetal bovine serum and sheep blood; type: physicochemical; settings: dyes in micelles, ICG free
Excerpt: as §1
Next, to more closely approximate in vivo performance, each chromenylium or flavylium dye were formulated into water-soluble PEG-phospholipid micelles, a biocompatible nanomaterial for delivery. Brightness of solutions with equal dye concentration (flavylium and chromenylium dyes in micelles; ICG) were evaluated when dispersed in water (e.g., FIG. 20a), fetal bovine serum (FBS) (e.g., FIG. 20b), and sheep blood (e.g., FIG. 20c).
Results changed drastically compared to those in the organic solvent experiment, likely due to variable amounts of aggregation or interactions within the micelles and/or biological media. […]

Compound | ΦF of reference standard IR-26 [1] [%] | ΦF of reference standard IR-26 [2] [%] | ranking of SWIR emission per excitation channel [3] | conduction through the lymphatic vessels [4] | clearance of ICG [5] | hepatic clearance time [6] | location of probe in awake mouse [7] | change of brightness in FBS and blood compared to water [8] | SWIR brightness in water, FBS and blood ([8]; equal dye concentration)
ClC1=C(/C=C/c2cc(-c3ccccc3)[s+]c3ccccc23)CCC/C1=C\C=C1/C=C(c2ccccc2)Sc2ccccc21.[O-][Cl+3]([O-])([O-])[O-] [IR-26] | 0.05 | 0.05 | – | – | – | – | – | – | –
CC1(C)C(/C=C/C=C/C=C/C=C2\N(CCCCS(=O)(=O)O)c3ccc4ccccc4c3C2(C)C)=[N+](CCCCS(=O)(=O)[O-])c2ccc3ccccc3c21 [ICG, indocyanine green] | – | – | best performers in channels i and ii | efficiently conducted through the lymphatic vessels | clears efficiently and exclusively from the liver | faster hepatic clearance time | exclusively in the liver | increase in brightness | brightest SWIR emitter upon 785 nm excitation in both FBS and blood
